{"source": "ChEMBL document CHEMBL1201862", "about": "“PubChem BioAssay data set” (2004)", "test_in_all_cases": "inhibition of tumour cell growth, NCI panel, 48 h", "key": {"[1]": {"system": "UO-31"}, "[2]": {"system": "MDA-MB-435"}, "[3]": {"system": "NCI-H460"}, "[4]": {"system": "RPMI-8226"}, "[5]": {"system": "SNB-19"}, "[6]": {"system": "NCI-H23"}, "[7]": {"system": "HL-60"}, "[8]": {"system": "OVCAR-4"}, "[9]": {"system": "HCT-15"}, "[10]": {"system": "RXF 393"}, "[11]": {"system": "HCT-116"}, "[12]": {"system": "NCI/ADR-RES"}, "[13]": {"system": "KM12"}, "[14]": {"system": "OVCAR-8"}, "[15]": {"system": "SF-539"}, "[16]": {"system": "MOLT-4"}, "[17]": {"system": "UACC-62"}, "[18]": {"system": "CCRF-CEM"}, "[19]": {"system": "PC-3"}, "[20]": {"system": "IGROV-1"}, "[21]": {"system": "MCF7"}, "[22]": {"system": "LOX IMVI"}, "[23]": {"system": "SK-MEL-5"}, "[24]": {"system": "HT-29"}, "[25]": {"system": "SF-268"}, "[26]": {"system": "DU-145"}, "[27]": {"system": "SN12C"}, "[28]": {"system": "UACC-257"}, "[29]": {"system": "HCC 2998"}, "[30]": {"system": "SF-295"}, "[31]": {"system": "K562"}, "[32]": {"system": "EKVX"}, "[33]": {"system": "NCI-H522"}, "[34]": {"system": "CAKI-1"}, "[35]": {"system": "OVCAR-5"}, "[36]": {"system": "T47D"}, "[37]": {"system": "SW-620"}, "[38]": {"system": "TK-10"}, "[39]": {"system": "SNB-75"}, "[40]": {"system": "SK-MEL-28"}, "[41]": {"system": "SR"}, "[42]": {"system": "A549"}, "[43]": {"system": "MDA-MB-231"}, "[44]": {"system": "SK-OV-3"}, "[45]": {"system": "HOP-92"}, "[46]": {"system": "COLO 205"}, "[47]": {"system": "U-251"}, "[48]": {"system": "M14"}, "[49]": {"system": "Hs-578T"}, "[50]": {"system": "ACHN"}, "[51]": {"system": "OVCAR-3"}, "[52]": {"system": "MDA-N"}, "[53]": {"system": "SK-MEL-2"}, "[54]": {"system": "786-0"}, "[55]": {"system": "HOP-62"}, "[56]": {"system": "Malme-3M"}, "[57]": {"system": "NCI-H226"}, "[58]": {"system": "BT-549"}, "[59]": {"system": "A498"}}, "note": "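The compound was tested at five concentrations on cells cultured in 96-well plates, with a 48-hour exposure period. The concentration for 50% growth inhibition is given as GI50.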 The source made the active and inactive calls. Rule as the data show it: active = GI50 up to about 1.1 µM and inactive = higher."}
{"smiles": "NC(Cc1ccc(CP(=O)(O)O)cc1)C(=O)O", "note": "(stereo unspecified)", "values": [{"measurement": "GI50", "setting": "[1]", "value": "> 100 µM (inactive)"}, {"measurement": "GI50", "setting": "[2]", "value": "> 100 µM (inactive)"}, {"measurement": "GI50", "setting": "[3]", "value": "> 100 µM (inactive)"}, {"measurement": "GI50", "setting": "[4]", "value": "> 100 µM (inactive)"}, {"measurement": "GI50", "setting": "[5]", "value": "> 100 µM (inactive)"}, {"measurement": "GI50", "setting": "[6]", "value": "> 100 µM (inactive)"}, {"measurement": "GI50", "setting": "[7]", "value": "> 100 µM (inactive)"}, {"measurement": "GI50", "setting": "[8]", "value": "> 100 µM (inactive)"}, {"measurement": "GI50", "setting": "[9]", "value": "> 100", "unit": "µM"}, {"measurement": "GI50", "setting": "[10]", "value": "> 100 µM (inactive)"}, {"measurement": "GI50", "setting": "[11]", "value": "> 100 µM (inactive)"}, {"measurement": "GI50", "setting": "[12]", "value": "> 100 µM (inactive)"}, {"measurement": "GI50", "setting": "[13]", "value": "> 100 µM (inactive)"}, {"measurement": "GI50", "setting": "[14]", "value": "> 100 µM (inactive)"}, {"measurement": "GI50", "setting": "[15]", "value": "> 100 µM (inactive)"}, {"measurement": "GI50", "setting": "[16]", "value": "> 100 µM (inactive)"}, {"measurement": "GI50", "setting": "[17]", "value": "> 100 µM (inactive)"}, {"measurement": "GI50", "setting": "[18]", "value": "> 100 µM (inactive)"}, {"measurement": "GI50", "setting": "[19]", "value": "> 100 µM (inactive)"}, {"measurement": "GI50", "setting": "[20]", "value": "> 100 µM (inactive)"}, {"measurement": "GI50", "setting": "[21]", "value": "> 100 µM (inactive)"}, {"measurement": "GI50", "setting": "[22]", "value": "> 100 µM (inactive)"}, {"measurement": "GI50", "setting": "[23]", "value": "> 100 µM (inactive)"}, {"measurement": "GI50", "setting": "[24]", "value": "> 100 µM (inactive)"}, {"measurement": "GI50", "setting": "[25]", "value": "> 100 µM (inactive)"}, {"measurement": "GI50", "setting": "[26]", "value": "> 100 µM (inactive)"}, {"measurement": "GI50", "setting": "[27]", "value": "> 100 µM (inactive)"}, {"measurement": "GI50", "setting": "[28]", "value": "> 100 µM (inactive)"}, {"measurement": "GI50", "setting": "[29]", "value": "> 100 µM (inactive)"}, {"measurement": "GI50", "setting": "[30]", "value": "> 100 µM (inactive)"}, {"measurement": "GI50", "setting": "[31]", "value": "> 100 µM (inactive)"}, {"measurement": "GI50", "setting": "[32]", "value": "> 100 µM (inactive)"}, {"measurement": "GI50", "setting": "[33]", "value": "> 100 µM (inactive)"}, {"measurement": "GI50", "setting": "[34]", "value": "11.5 µM (inactive)"}, {"measurement": "GI50", "setting": "[35]", "value": "> 100 µM (inactive)"}, {"measurement": "GI50", "setting": "[36]", "value": "> 100 µM (inactive)"}, {"measurement": "GI50", "setting": "[37]", "value": "> 100 µM (inactive)"}, {"measurement": "GI50", "setting": "[38]", "value": "> 100 µM (inactive)"}, {"measurement": "GI50", "setting": "[39]", "value": "> 100 µM (inactive)"}, {"measurement": "GI50", "setting": "[40]", "value": "> 100 µM (inactive)"}, {"measurement": "GI50", "setting": "[41]", "value": "> 100 µM (inactive)"}, {"measurement": "GI50", "setting": "[42]", "value": "> 100 µM (inactive)"}, {"measurement": "GI50", "setting": "[43]", "value": "> 100 µM (inactive)"}, {"measurement": "GI50", "setting": "[44]", "value": "> 100 µM (inactive)"}, {"measurement": "GI50", "setting": "[45]", "value": "> 100 µM (inactive)"}, {"measurement": "GI50", "setting": "[46]", "value": "> 100 µM (inactive)"}, {"measurement": "GI50", "setting": "[47]", "value": "> 100 µM (inactive)"}, {"measurement": "GI50", "setting": "[48]", "value": "> 100 µM (inactive)"}, {"measurement": "GI50", "setting": "[49]", "value": "> 100 µM (inactive)"}, {"measurement": "GI50", "setting": "[50]", "value": "> 100 µM (inactive)"}, {"measurement": "GI50", "setting": "[51]", "value": "> 100 µM (inactive)"}, {"measurement": "GI50", "setting": "[52]", "value": "> 100 µM (inactive)"}, {"measurement": "GI50", "setting": "[53]", "value": "> 100 µM (inactive)"}]}
{"smiles": "O=C1ON=C2C3CC4CC12CC1(C3)C(=O)ON=C41", "values": [{"measurement": "GI50", "setting": "[1]", "value": "> 100 µM (inactive)"}, {"measurement": "GI50", "setting": "[2]", "value": "> 100 µM (inactive)"}, {"measurement": "GI50", "setting": "[3]", "value": "> 100 µM (inactive)"}, {"measurement": "GI50", "setting": "[4]", "value": "> 100 µM (inactive)"}, {"measurement": "GI50", "setting": "[54]", "value": "> 100 µM (inactive)"}, {"measurement": "GI50", "setting": "[5]", "value": "> 100 µM (inactive)"}, {"measurement": "GI50", "setting": "[6]", "value": "> 100 µM (inactive)"}, {"measurement": "GI50", "setting": "[7]", "value": "> 100 µM (inactive)"}, {"measurement": "GI50", "setting": "[8]", "value": "> 100 µM (inactive)"}, {"measurement": "GI50", "setting": "[10]", "value": "> 100 µM (inactive)"}, {"measurement": "GI50", "setting": "[11]", "value": "> 100 µM (inactive)"}, {"measurement": "GI50", "setting": "[12]", "value": "> 100 µM (inactive)"}, {"measurement": "GI50", "setting": "[13]", "value": "> 100 µM (inactive)"}, {"measurement": "GI50", "setting": "[14]", "value": "> 100 µM (inactive)"}, {"measurement": "GI50", "setting": "[15]", "value": "> 100 µM (inactive)"}, {"measurement": "GI50", "setting": "[16]", "value": "> 100 µM (inactive)"}, {"measurement": "GI50", "setting": "[17]", "value": "> 100 µM (inactive)"}, {"measurement": "GI50", "setting": "[18]", "value": "> 100 µM (inactive)"}, {"measurement": "GI50", "setting": "[19]", "value": "> 100 µM (inactive)"}, {"measurement": "GI50", "setting": "[20]", "value": "> 100 µM (inactive)"}, {"measurement": "GI50", "setting": "[21]", "value": "> 100 µM (inactive)"}, {"measurement": "GI50", "setting": "[55]", "value": "> 100 µM (inactive)"}, {"measurement": "GI50", "setting": "[22]", "value": "> 100 µM (inactive)"}, {"measurement": "GI50", "setting": "[23]", "value": "> 100 µM (inactive)"}, {"measurement": "GI50", "setting": "[24]", "value": "> 100 µM (inactive)"}, {"measurement": "GI50", "setting": "[26]", "value": "> 100 µM (inactive)"}, {"measurement": "GI50", "setting": "[27]", "value": "> 100 µM (inactive)"}, {"measurement": "GI50", "setting": "[28]", "value": "> 100 µM (inactive)"}, {"measurement": "GI50", "setting": "[29]", "value": "> 100 µM (inactive)"}, {"measurement": "GI50", "setting": "[30]", "value": "> 100 µM (inactive)"}, {"measurement": "GI50", "setting": "[56]", "value": "> 100 µM (inactive)"}, {"measurement": "GI50", "setting": "[57]", "value": "> 100 µM (inactive)"}, {"measurement": "GI50", "setting": "[31]", "value": "> 100 µM (inactive)"}, {"measurement": "GI50", "setting": "[32]", "value": "> 100 µM (inactive)"}, {"measurement": "GI50", "setting": "[33]", "value": "> 100 µM (inactive)"}, {"measurement": "GI50", "setting": "[34]", "value": "> 100 µM (inactive)"}, {"measurement": "GI50", "setting": "[35]", "value": "> 100 µM (inactive)"}, {"measurement": "GI50", "setting": "[37]", "value": "> 100 µM (inactive)"}, {"measurement": "GI50", "setting": "[39]", "value": "> 100 µM (inactive)"}, {"measurement": "GI50", "setting": "[40]", "value": "> 100 µM (inactive)"}, {"measurement": "GI50", "setting": "[41]", "value": "> 100 µM (inactive)"}, {"measurement": "GI50", "setting": "[58]", "value": "> 100 µM (inactive)"}, {"measurement": "GI50", "setting": "[42]", "value": "> 100 µM (inactive)"}, {"measurement": "GI50", "setting": "[43]", "value": "> 100 µM (inactive)"}, {"measurement": "GI50", "setting": "[45]", "value": "> 100 µM (inactive)"}, {"measurement": "GI50", "setting": "[46]", "value": "> 100 µM (inactive)"}, {"measurement": "GI50", "setting": "[47]", "value": "> 100 µM (inactive)"}, {"measurement": "GI50", "setting": "[48]", "value": "> 100 µM (inactive)"}, {"measurement": "GI50", "setting": "[50]", "value": "> 100 µM (inactive)"}, {"measurement": "GI50", "setting": "[51]", "value": "> 100 µM (inactive)"}, {"measurement": "GI50", "setting": "[59]", "value": "> 100 µM (inactive)"}, {"measurement": "GI50", "setting": "[52]", "value": "> 100 µM (inactive)"}, {"measurement": "GI50", "setting": "[53]", "value": "> 100 µM (inactive)"}]}
